Laboratory results from publication PMC10663516 (Scientific Reports, 2023).

Legend:
[1] = set-up: method as in PMID 20615965; conditions: mice, oral, 14.2 mg/kg; cited from earlier work
[2] = Tolerability in mice; assay type: in vivo; conditions: same strain as efficacy studies, 30 mg/kg QD PO, unpublished observations
Experimental: For acalabrutinib, the current clinically recommended oral dose in MCL is 100 mg twice daily (BID)[18],[19], which results in an exposure of 1111 h·ng/mL[18],[19]. There are no published data on the pharmacokinetics of acalabrutinib in mice. The compound was administered at 15 mg/kg BID in mouse xenograft tumor models, giving a total daily dose of 30 mg/kg.

[3] = biological target: T1, BMX (Homo sapiens, UniProt P51813); test: Millipore Kinase Profiler screening panel, BMX; assay type: biochemical
T1 construct: purchased EMD Millipore
T1 sequence (P51813 whole entry): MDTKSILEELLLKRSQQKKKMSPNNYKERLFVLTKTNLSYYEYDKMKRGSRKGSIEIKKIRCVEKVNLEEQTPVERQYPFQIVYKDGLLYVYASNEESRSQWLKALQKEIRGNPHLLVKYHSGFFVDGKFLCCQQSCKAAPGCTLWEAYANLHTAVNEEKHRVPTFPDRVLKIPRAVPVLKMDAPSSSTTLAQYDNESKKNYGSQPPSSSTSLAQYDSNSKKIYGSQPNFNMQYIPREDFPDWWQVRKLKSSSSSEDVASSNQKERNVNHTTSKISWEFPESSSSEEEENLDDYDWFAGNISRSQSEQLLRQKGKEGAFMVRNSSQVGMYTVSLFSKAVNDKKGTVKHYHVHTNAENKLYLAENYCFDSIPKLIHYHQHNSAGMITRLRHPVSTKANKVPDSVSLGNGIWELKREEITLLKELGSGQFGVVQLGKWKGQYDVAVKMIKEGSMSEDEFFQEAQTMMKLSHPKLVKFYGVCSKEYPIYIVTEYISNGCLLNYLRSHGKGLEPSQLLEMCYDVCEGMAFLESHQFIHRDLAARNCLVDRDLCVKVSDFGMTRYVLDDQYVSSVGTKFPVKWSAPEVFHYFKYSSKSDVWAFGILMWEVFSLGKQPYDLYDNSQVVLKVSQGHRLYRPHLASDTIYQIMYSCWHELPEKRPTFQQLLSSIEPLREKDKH
Experimental: (§1) The Kinase Profiler™ screening panel (EMD Millipore, Burlington, MA, USA) was used to test the inhibitory activity of TL-895 against 270 protein kinases. Kinases were incubated with TL-895 (1 µM) for 20 min to 4 h at room temperature, according to standard kinome screen procedures. […]

[4] = biological target: T2, Txk (Homo sapiens, UniProt P42681); test: Millipore Kinase Profiler screening panel, Txk; assay type: biochemical
T2 construct: purchased EMD Millipore
T2 sequence (P42681 whole entry): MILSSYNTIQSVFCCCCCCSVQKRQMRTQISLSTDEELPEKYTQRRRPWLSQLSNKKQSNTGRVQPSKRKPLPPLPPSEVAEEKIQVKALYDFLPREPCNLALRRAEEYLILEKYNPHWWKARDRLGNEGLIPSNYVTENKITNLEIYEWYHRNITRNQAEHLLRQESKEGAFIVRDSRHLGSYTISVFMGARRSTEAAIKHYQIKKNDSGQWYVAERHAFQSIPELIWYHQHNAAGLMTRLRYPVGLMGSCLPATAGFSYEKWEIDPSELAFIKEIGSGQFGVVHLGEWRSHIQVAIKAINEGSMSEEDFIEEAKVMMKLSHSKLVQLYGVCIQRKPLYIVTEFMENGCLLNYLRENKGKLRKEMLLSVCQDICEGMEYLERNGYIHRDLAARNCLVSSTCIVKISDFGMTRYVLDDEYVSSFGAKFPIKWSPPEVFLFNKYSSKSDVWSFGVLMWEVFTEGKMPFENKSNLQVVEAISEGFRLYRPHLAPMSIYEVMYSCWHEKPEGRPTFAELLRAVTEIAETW
Experimental: as §1

[5] = system: HBL-1; test: Cell viability, ATPlite; assay type: cell-based, human
Experimental: (§2) The potency of TL-895 effects on cell viability was further examined in vitro in a panel of diffuse large B-cell lymphoma (DLBCL) and MCL cell lines, comprising ten germinal B-cell like subtype (GCB)-DLBCL cell lines, six activated B-cell like (ABC)-DLBCL cell lines, and six MCL cell lines (Horizon Discovery Inc, Cambridge MA, USA). Cells were seeded into 384-well plates (500 cells/well) and incubated (37 °C for 24 h) before treatment with varying concentrations of TL-895 for 72 h. ATP levels were analyzed using the ATPlite Luminescence Assay System (Perkin Elmer, UK). Growth inhibition and maximum response were calculated using the Chalice Analyzer (Horizon Discovery Inc).

[6] = system: OCI-Ly3; test: Cell viability, ATPlite; assay type: cell-based, human
Experimental: as §2

[7] = system: SU-DHL-2-epst; test: Cell viability, ATPlite; assay type: cell-based, human
Experimental: as §2

[8] = system: TMD8; test: Cell viability, ATPlite; assay type: cell-based, human
Experimental: as §2

[9] = system: GCB-DLBCL cell lines; test: Cell viability, ATPlite, GCB-DLBCL panel; assay type: cell-based; conditions: Homo sapiens; all GCB-DLBCL cell lines, 72 h; read-out: IC50s in GCB-DLBCL cell lines
Experimental: as §2

[10] = Cytotoxicity by ATP content (CellTiter-Glo); assay type: cell-based, human; conditions: human, HepG2 cells
Experimental: (§3) HepG2 cells (human hepatocellular carcinoma [epithelial]) and primary human hepatocytes were cultured in DMEM/F-12 medium supplemented with antibiotics, sodium pyruvate, insulin and 10% fetal calf serum. During the testing steps, the medium was replaced by serum-free media containing bovine serum albumin (BSA) and dexamethasone. All the cultures are incubated at 37 °C in a humidified chamber containing 5% CO2. […] HepG2 and primary hepatocytes were cultured in 96-well tissue culture plates either for luminescence (2E4/well in 100 µL) or pre-coated with collagen I (3.5E4/well in 100 µL, respectively).
(§4) For the cytotoxicity data, the % values relative (%RV) to the vehicle controls were calculated for each dose level. […] The overall EC50s were the averages of the values obtained from each experiment (PRISM® GraphPad™ Software, Boston, MA).

[11] = system: HepG2 cells; test: Cytotoxicity by ATP content (CellTiter-Glo); assay type: cell-based, human; conditions: HepG2 EC50 at 24 and 72 h
Experimental: as §3, §4

[12] = Cytotoxicity by ATP content (CellTiter-Glo); assay type: cell-based, human; conditions: primary human hepatocytes, 24 h
Experimental: as §3, §4

[13] = system: primary human hepatocytes; test: Cytotoxicity by ATP content (CellTiter-Glo); assay type: cell-based; conditions: hepatocyte EC50 at 24 h
Experimental: as §3, §4

[14] = system: A431 and A549; test: ADCC induced by anti-PD-L1 or anti-EGFR antibody (51Cr release); assay type: cell-based, human; conditions: A431 and A549 target cells, PBMC effector cells, 4 h; TL-895 0.05 and 3 µM or 8 nM–25 µM
Experimental: In a second study, ADCC induced by anti-programmed death-ligand 1 (anti-PD-L1) or anti-EGFR antibody was measured using two cultured human tumor cell lines (A431 and A549, target cells; obtained from ATCC). Target cells were stimulated with human interferon-gamma (200 ng/mL) for 48 h to increase surface expression of PD-L1 target protein. Target cell and effector cells (peripheral blood mononuclear cells) were incubated for 4 h with (a) increasing concentrations of antibody (0.2–1000 ng/mL) and TL-895 (0, 0.05 and 3 µM), or (b) a fixed concentration of antibody (20 ng/mL) and increasing concentrations of TL-895 (8 nM–25 µM). ADCC analysis was based on the quantitation of chromium-51 (^51Cr) release during lysis of target cells using […] detection on a MicroBeta2 2450-0060 liquid scintillation and luminescence counter (PerkinElmer, Waltham, MA, USA).

[15] = mouse, in vivo, po, 25 mg/kg
[16] = biological target: T3, BTK (Homo sapiens, UniProt Q06187); test: Millipore Kinase Profiler screening panel, BTK; assay type: biochemical; set-up: purchased EMD Millipore; conditions: n = 2
T3 sequence (Q06187 whole entry): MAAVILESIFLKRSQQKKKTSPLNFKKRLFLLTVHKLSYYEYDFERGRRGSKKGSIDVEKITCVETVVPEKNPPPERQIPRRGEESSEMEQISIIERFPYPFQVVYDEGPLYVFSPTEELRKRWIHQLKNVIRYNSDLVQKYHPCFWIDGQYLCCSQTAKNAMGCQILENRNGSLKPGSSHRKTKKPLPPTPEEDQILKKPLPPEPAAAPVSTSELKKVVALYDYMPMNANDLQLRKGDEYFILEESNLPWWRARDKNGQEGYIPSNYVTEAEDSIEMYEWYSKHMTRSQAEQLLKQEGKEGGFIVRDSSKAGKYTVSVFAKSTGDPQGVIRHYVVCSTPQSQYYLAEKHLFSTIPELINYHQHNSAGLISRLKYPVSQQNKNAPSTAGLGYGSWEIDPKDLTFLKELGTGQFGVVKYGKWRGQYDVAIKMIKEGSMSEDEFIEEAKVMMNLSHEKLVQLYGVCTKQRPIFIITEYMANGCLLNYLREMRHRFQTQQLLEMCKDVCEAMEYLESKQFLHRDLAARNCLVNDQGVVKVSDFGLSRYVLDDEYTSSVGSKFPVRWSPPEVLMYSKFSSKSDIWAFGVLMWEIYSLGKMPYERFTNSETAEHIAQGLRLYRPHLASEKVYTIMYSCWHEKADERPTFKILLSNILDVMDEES
Experimental: as §1

[17] = biological target: T3, BTK; test: BTK phosphorylation in Ramos cells after anti-IgM stimulation (ProteinSimple Wes); assay type: cell-based; set-up: endogenous in cells; host or cells: Ramos Burkitt's lymphoma cells (ATCC CRL-1596)
[18] = Homo sapiens, HBL1, HBL-1 (ABC-DLBCL), 72 h
[19] = Homo sapiens, TMD8 (ABC-DLBCL), 72 h

In the case of `C=CC(=O)N1CCC[C@@H](n2nc(-c3ccc(Oc4ccccc4)cc3)c3c(N)ncnc32)C1` [Ibrutinib], the Exposure [1] is listed as 569 ng·h/mL.

With `CC#CC(=O)N1CCC[C@H]1c1nc(-c2ccc(C(=O)Nc3ccccn3)cc2)c2c(N)nccn12` [Acalabrutinib] the Tolerability [2] was “no significant tolerability issues”.

For `C=CC(=O)N1CCC(F)(CNc2ncnc(N)c2-c2ccc(Oc3ccccc3)cc2)CC1` [TL-895], the IC50 [3] was 5 nM, the IC50 [4] was 62 nM and the “Sensitivity to TL-895” value ([5]; HBL-1, mutations in both CD79b and MyD88) was “sensitive”. It also gave a GI50 [5, 18] of 560 nM, an IC50 [5, 18] of 10300 nM and an Emax ([5]; Homo sapiens, HBL1, HBL-1 (ABC-DLBCL), 72 h, read-out: Max response (GI %)) of 89%. The Emax ([6]; Homo sapiens, OCI-Ly3 (ABC-DLBCL), 72 h, read-out: Max response (GI %)) was 39%, the “Sensitivity to TL-895” value ([6]; OCI-Ly3, MyD88 mutation, CD79 wild-type) was “unresponsive” and the Emax ([7]; Homo sapiens, SU-DHL-2-epst (ABC-DLBCL), 72 h, read-out: Max response (GI %)) was 2%. The “Sensitivity to TL-895” value ([7]; SU-DHL-2-epst, MyD88 mutation, CD79 wild-type) was “unresponsive”, the GI50 [8, 19] was 10 nM and the IC50 [8, 19] was 10 nM. For the same molecule, the Emax ([8]; Homo sapiens, TMD8 (ABC-DLBCL), 72 h, read-out: Max response (GI %)) was 181%, the “Sensitivity to TL-895” value ([8]; TMD8, mutations in both CD79b and MyD88) was “sensitive” and the IC50 [9] was greater than 5000 nM. The EC50 at 24 h ([10]; HepG2, 24 h) was greater than 50000 nM, the EC50 at 72 h ([10]; HepG2, 72 h) was greater than 50000 nM and the “Cytotoxicity EC50 in HepG2 cells relative to IC50s in sensitive MCL and DLBCL cell lines” value [11] was 5–5000 fold. For the same molecule, the EC50 at 24 h [12] was 6400 nM, the “Cytotoxicity EC50 in primary human hepatocytes relative to IC50 in primary CLL blasts” value [13] was 32 fold and the “Effect on ADCC of anti-PD-L1 or anti-EGFR antibodies (concentration–response, maximum cell lysis)” value [14] was “did not affect the concentration–response or maximum cell lysis when combined with anti-PD-L1 or anti-EGFR antibodies, except at the highest concentrations tested”. For the same molecule, the “Exposure relative to that needed for 90–95% target occupancy” value [15] was 8.5 fold, the IC50 [16] was 18.5 nM and the IC50 ([17]; 30 min pre-treatment, anti-IgM stimulation, read-out: IC50, BTK auto-phosphorylation at Y223) was 1 to 10 nM. The “Phosphorylation of Y551 on the activation loop” value ([17]; up to highest tested concentration 1 µM) was “not inhibited”.
